Results on two molecules are retold here after patent US20070167424A1, “Aztreonam L-lysine and methods for the preparation thereof” (priority 2003, published 2007).

The nature of series [1]: Storage stability: assay of Aztreonam by HPLC after storage. Type of series: physicochemical. On the procedure: (§1) The Aztreonam L-lysine obtained using these methods was stable in the sense that during 3 months at 2-8° C.:
1. the assay of Aztreonam was maintained constant in the limit 60-66%; and The assay of Aztreonam Lysine salt using the HPLC method was determined as follows: a. Dissolving Aztreonam Lysine salt sample in a mixture of 0.02 M KH2PO4 buffer solution (pH adjusted 3.0 with 25 w/w % phosphoric acid) and methanol (80:20) diluent, b. Injecting the sample solution (ca. 10 μl) into a 50.0 mm×4.6 mm, 3 μm RP-18 HPLC column, c. Isocratic eluting at 1.5 ml/min with a mixture of 0.02 M KH2PO4 buffer solution (pH adjusted 3.0 with 25 w/w % phosphoric acid) and methanol in a 83:17 v/v % ratio. d. Measuring of the amounts of each impurity at 270 nm wavelength with a UV detector and appropriate recording device. e. Calculating of the assay referring to the Aztreonam working standard at a concentration of 100 [g/ml.
In the above method, Aztreonam has a retention time of about 2.3 minutes

A short description of series [2]: Storage stability: impurity content by HPLC after storage. Type of series: physicochemical. The method, then:
as §1
2. no impurity exceed 0.3 area %.
The impurity content of Aztreonam lysine salt using the HPLC method is determined as follows:
a. Aztreonam Lysine salt sample is dissolved in 0.02 M KH2PO4 buffer solution (pH adjusted 2.0 with 25 w/w % phosphoric acid) diluent,
b. The sample solution (ca. 10 μl) is injected into a 100.0 mm×4.0 mm, 3 μm RP-1 8 HPLC column,
c. Gradient eluting with a mixture of 0.02 M KH2PO4 buffer solution (pH adjusted 3.0 with 25 w/w % phosphoric acid) (A) and acetonitrile (B) according to the following profile:
d. The amounts of each impurity was measured at 230 nm wavelength with a UV detector and appropriate recording device.
e. The amount of each impurity was calculated referring to an Aztreonam working standard at a concentration of […].
In the above method, Aztreonam has a retention time of about 10.2 minutes.

Where [3] appears, read: after storage for three months at about 2-8° C.

As to `C[C@H]1[C@H](NC(=O)/C(=N\OC(C)(C)C(=O)O)c2csc(N)n2)C(=O)N1S(=O)(=O)O.NCCCC[C@H](N)C(=O)O` [Aztreonam L-lysine], the “assay of Aztreonam maintained constant in the limit” value in series [1] (during 3 months at 2-8° C.) is given as 60-66%. For the same molecule, the “no impurity exceed (largest single impurity)” value in series [2] (during 3 months at 2-8° C.) is at most 0.3 area %.

In the case of `C[C@H]1[C@H](NC(=O)/C(=N\OC(C)(C)C(=O)O)c2csc(N)n2)C(=O)N1S(=O)(=O)O.NCCCC[C@H](N)C(=O)O` [Example 2, Aztreonam L-lysine salt], the “maintains at least about ... of the Aztreonam” value in series [1] (setting [3]) is on record as “at least 63 weight %”. Moreover, the “does not contain any impurity exceeding” value in series [2] (setting [3]) was at most 0.3 area %.
